Results published in patent US20050180954A1, “Drug for treating bone disorders” (priority 1995, published 2005).

Experiments:
Type in all cases: cell-based, mouse
[1] = tested on: osteoclast like cells from bone marrow cells of mice of ddy strain; assay: Formation of osteoclast like cells from bone marrow cells of mice of ddy strain
Method: Bone marrow cells were prepared in accordance with the method by Takahashi et al (Takahashi, N. et al., Endocrinology, 122, 1373, 1988). Male mice of ddy strain of 7 weeks old were exanguinated to death under ether anesthesia and the femur and the tibia of hind legs were collected from each mouse. The connective tissues on the surfaces of the bones were carefully removed, and both ends of each bone were cut off with scissors. The bone marrow cells were suspended in α-Minimum Essential Medium (α-MEM, Nissui Pharmaceuticals Co.) containing 10% pre-colostrum new born calf serum (Mitsubishi Chemical, hereinafter referred to as “JCS” for short) and the suspension was flushed out through a 25 G needle attached to a syringe to collect the suspension in a centrifugal tube. The collected suspension was washed by centrifugation in the same medium at 2000 rpm at 4° C. for 5 minutes. The precipitated cells were dispersed in the above-mentioned medium and the washing by centrifugation was repeated twice, thereby preparing bone marrow cells. Murine IFN-α (hereinafter referred to as “MuIFNα” for short), Lot. B13010, 106 units/ml/vial (Calbiochem-Novabiochem International, San Diego, Calif.), murine IFN-β (hereinafter referred to as “MuIFNβ” for short), Lot M-0034, 10 units/ml/vial (Toray Industries, Inc.) and murine IFNγ (hereinafter referred to as “MuIFNγ” for short), Lot 254F3, 2.06×10^6 units/ml (Genentech, Calif.) were respectively dissolved in 10% JCS-containing α-MEM (Nissui Pharmaceuticals Co.) to the desired concentrations. Active vitamin D3 ([…], Wako Pure Chemical Industries, Ltd., hereinafter referred to as “Vit D3” for short) was dissolved in argon-saturated ethanol, and the obtained solution was diluted so as to attain the final ethanol concentration of 0.1% in all of the culture systems.
(§1) The number of viable bone marrow cells was counted using tripam blue dye exclusion test and the bone marrow cells were diluted with α-MEM containing 10% JCS, 10^−8M Vit D3, 10^−7 M dexamethasone to a population density of 1.5×10^6 cells/ml, followed by placing the resulting suspension in each well in 24-well plates in an amount of 0.45 ml/well. To each well, 50 μl of the medium containing varying concentration of IFN was added to make the volume to 0.5 ml/well and culturing was begun. At every three days, 0.4 ml of the culture medium was removed from each well and 0.4 ml of fresh medium (the above-mentioned medium containing the respective concentration of IFN) was added. On Day 8 from the beginning of the culturing, the medium was removed and the cells were fixed with mixed solution of ethyl alcohol and diethyl ether (1:1) and the cells were stained with tartrate resistant acid phosphatase (TRAP), followed by counting TRAP positive multinuclear cells with a phase contrast microscope. […] The inhibition effect of IFNγ was stronger than that of IFNβ. That is, the inhibition concentration IC50 of IFNγ was not more than 0.1 units/ml, and that of IFNβ was 0.2 units/ml.
The effects of the three murine IFNs, that is, MuIFNβ, γ and α in terms of abilities to inhibit formation of osteoclast like cells from bone marrow cells in mice of ddy strain were compared. The test was carried out as in Example 1. All of the murine IFNs inhibited the formation of osteoclast like cells, and the effect was strong in the order of γ, β and α. […] Thus, the activity of IFNα to inhibit formation of osteoclasts was about 1/20 of that of IFNβ and about not more than 1/100 of that of IFNγ.

[2] = tested on: osteoclast like cells from bone marrow cells of mice of C 57 BL/6 strain; assay: Formation of osteoclast like cells from bone marrow cells of mice of C 57 BL/6 strain; conditions: Example 2, C 57 BL/6 strain bone marrow cells
Method: as §1
In place of mice of ddy strain, male mice of C 57 BL/6 of 7 weeks old were used. The mice were exanguinated to death under ether anesthesia and the femur and the tibia of hind legs were collected from each mouse. The connective tissues on the surfaces of the bones were carefully removed, and both ends of each bone were cut off with scissors. The bone marrow cells were suspended in α-MEM containing 10% JCS and the suspension was flushed out through a 25 G needle attached to a syringe to collect the suspension in a centrifugal tube. The collected suspension was washed by centrifugation in the same medium at 2000 rpm at 4° C. for 5 minutes. The precipitated cells were dispersed in the above-mentioned medium and the washing by centrifugation was repeated twice. Formation of osteoclast like cells was measured by the same method as in Example 1.

MC3T3-E1 cells [3] = assay: Mineralization of murine osteoblasts, Von Kossa stain (in vitro single administration); conditions: Day 14
Method: As the parameters for evaluation of differentiation ability, alkaline phosphatase (ALPase) and mineralization were employed. Detection of alkaline phosphatase which is a marker of differentiation of osteoblasts was carried out on Day 8 from the beginning of the culturing by staining method. Evaluation of mineralization was carried out as follows. That is, MC3T3-E1 cells were placed in each well of 24-well plates in an amount of 50,000 cells/ml (10 times in the case of anti-cell test in Example 3). On Day 4, after confirming that the cells sufficiently reached confluency, the medium was discarded and fresh α-MEM containing 10% JCS, 50 μg/ml of L-ascorbic acid and 10 mM β-glycerophosphate was added in an amount of 0.9 ml/well, followed by adding medium containing varying concentration of IFN. Four days later, the medium was replaced with IFN-free medium, and the medium was replaced with IFN-free medium every 4 days. On Day 14, Von Kossa stain was performed to visualize the calcified foci. Expression of alkaline phosphatase activity which is a differentiation marker is an indispensable step to the subsequent mineralization.

MC3T3-E1 cells [4] = assay: Quantification of calcium in calcified foci of MC3T3-E1; conditions: 1000 units/ml; MC3T3-E1, Day 14
Method: MC3T3-E1 cells were placed in each well in 24-well plates in an amount of 50,000 cells/well and cultured to confluency. The medium was removed and fresh α-MEM containing 10% JCS, 50 μg/ml of L-ascorbic acid and 10 mM β-glycerophosphate was added in an amount of 0.9 ml/well, followed by adding 0.1 ml/well of medium containing varying concentration of IFN. The medium was replaced with IFN-free medium every 4 days. On Day 14, the medium was removed and the cells were lightly washed with Hank's solution. Anhydrous ethanol was added in an amount of 1 ml/well and fixation was carried out at room temperature for 15 minuets. Then the anhydrous ethanol was replaced with fresh anhydrous ethanol in an amount of 1 ml/well and 5 minutes later, each well was dried in the air. Then 1N hydrochloric acid was added in an amount of 1 ml/well and extraction was carried out at room temperature for 30 minutes. The total contents of each well were transferred to an Eppendorf tube and centrifuged at 1800×g at 4° C. for 10 minutes The amount of calcium in the supernatant was measured by Calcium C Test Wako and the amount of inorganic phosphorus in the supernatant was measured by Phospha B Test Wako. […] The IC50 value was as low as about 10 units/ml (FIG. 5).

inhibition concentration IC50 of formation of osteoclast like cells ([1]; Example 1, Vit D3 + dexamethasone, Day 8, TRAP positive multinuclear cells): 0.2 units/ml | IC50 of inhibition of formation of osteoclast like cells ([1]; Example 8 comparison of three murine IFNs): about 0.9 units/ml | IC50 of formation inhibition of osteoclast like cells ([2]; Day 8): 0.1 units/ml
Substance: MuIFNβ: murine interferon β, Lot M-0034, prepared by Toray Industries, Inc. by genetic engineering technique
inhibition of formation of osteoclast like cells ([1]; Example 1, Day 8, TRAP positive multinuclear cells): strongly inhibited formation of osteoclast like cells | inhibition of formation of osteoclast like cells [2]: strongly inhibited formation of osteoclast like cells | influence on mineralization (calcified foci, Von Kossa stain) (MC3T3-E1 cells [3]): mineralization proceeded without substantial influence | calcium deposition smaller than the control (MC3T3-E1 cells [4]): 20%
